Assay results reported in ChEMBL document CHEMBL4699433, “Rational design, synthesis and testing of novel tricyclic topoisomerase inhibitors for the treatment of bacterial infections part 2” (RSC Med Chem, 2020).
≈ marks a conversion by molar mass, not a printed value.

Key:
[1] = test system: Streptococcus pneumoniae; experiment: Antibacterial activity against Streptococcus pneumoniae ATCC 49619 assessed as reduction in bacterial growth by CLSI based broth microdilution method; format: functional
[2] = test system: Staphylococcus aureus; experiment: Antibacterial activity against wild type methicillin-sensitive Staphylococcus aureus ATCC 29213 assessed as reduction in bacterial growth by CLSI based broth microdilution method; format: functional
[3] = test system: Haemophilus influenzae; experiment: Antibacterial activity against Haemophilus influenzae ATCC 49247 assessed as reduction in bacterial growth by CLSI based broth microdilution method; format: functional
[4] = test system: Escherichia coli; experiment: Antibacterial activity against Escherichia coli ATCC 25922 assessed as reduction in bacterial growth by CLSI based broth microdilution method; format: functional
[5] = Thermodynamic solubility of the compound; format: physicochemical; settings: read-out: Therm_solubility

Row | MIC [1] [µg/mL] | MIC [2] [µg/mL] | MIC [3] [µg/mL] | MIC [4] [µg/mL] | solubility thermodynamic [5] [µg/mL] | Structure (SMILES)
1 | 0.12 (≈ 0.307 µM) | 0.12 (≈ 0.307 µM) | 1 (≈ 2.56 µM) | 0.5 (≈ 1.28 µM) | 601 (≈ 1540 µM) | Cc1nc2c(=O)n(C3CC3)c3c(Cl)c(N4CC[C@H](CN)C4)c(F)cc3c2o1
2 | 4 (≈ 9.88 µM) | 4 (≈ 9.88 µM) | 8 (≈ 19.8 µM) | 4 (≈ 9.88 µM) |  | Cc1nc2c(=O)n(C3CC3)c3c(Cl)c(N4CCC(N(C)C)C4)c(F)cc3c2o1 (stereo unspecified)
3 | 0.12 (≈ 0.307 µM) | 0.12 (≈ 0.307 µM) |  | 1 (≈ 2.56 µM) | 950 (≈ 2430 µM) | Cc1nc2c(=O)n(C3CC3)c3c(Cl)c(N4CC[C@@H](CN)C4)c(F)cc3c2o1
4 | 1 (≈ 2.81 µM) | 1 (≈ 2.81 µM) | 1 (≈ 2.81 µM) | 2 (≈ 5.61 µM) | 1400 (≈ 3940 µM) | Cc1nc2c(=O)n(C3CC3)c3cc(N4CCC(N)CC4)c(F)cc3c2o1
5 | 0.5 (≈ 1.4 µM) | 1 (≈ 2.81 µM) | 8 (≈ 22.4 µM) | 2 (≈ 5.61 µM) | 1400 (≈ 3940 µM) | Cc1nc2c(=O)n(C3CC3)c3cc(N4CC[C@H](CN)C4)c(F)cc3c2o1
6 | 16 (≈ 39.5 µM) | 8 (≈ 19.8 µM) | 8 (≈ 19.8 µM) | 4 (≈ 9.88 µM) | 543 (≈ 1340 µM) | Cc1nc2c(=O)n(C3CC3)c3c(Cl)c(N4C[C@@H](C)N[C@@H](C)C4)c(F)cc3c2o1
7 | 0.5 (≈ 1.4 µM) | 0.5 (≈ 1.4 µM) | 8 (≈ 22.4 µM) | 2 (≈ 5.61 µM) |  | Cc1nc2c(=O)n(C3CC3)c3cc(N4CCC(CN)C4)c(F)cc3c2o1 (stereo unspecified)
8 | 1 (≈ 2.7 µM) | 1 (≈ 2.7 µM) | 4 (≈ 10.8 µM) | 4 (≈ 10.8 µM) | 1350 (≈ 3640 µM) | Cc1nc2c(=O)n(C3CC3)c3cc(N4CCC(C(C)N)C4)c(F)cc3c2o1 (stereo unspecified)
9 | 0.25 (≈ 0.617 µM) | 0.25 (≈ 0.617 µM) | 1 (≈ 2.47 µM) | 2 (≈ 4.94 µM) |  | CNC[C@H]1CCN(c2c(F)cc3c4oc(C)nc4c(=O)n(C4CC4)c3c2Cl)C1
10 | 2 (≈ 5.2 µM) | 2 (≈ 5.2 µM) | 16 (≈ 41.6 µM) | 8 (≈ 20.8 µM) | 1350 (≈ 3520 µM) | Cc1nc2c(=O)n(C3CC3)c3cc(N4CC[C@@H](C(C)(C)N)C4)c(F)cc3c2o1
